Test results taken from the supplement of paper PMC10307832.

Key:
Assay in all cases: relative viability (nuclei count vs DMSO), 5 days (fraction); higher = more cells survive
KIN001-266 + AZD7762 = compound: CCN1CCC(CC1)N2C=C(N=N2)CNC3=CC4=C(C(=CN=C4C(=C3)Cl)C#N)NC5=CC(=C(C=C5)F)Cl [KIN001-266] + NC(=O)Nc1cc(-c2cccc(F)c2)sc1C(=O)N[C@H]1CCCNC1 [AZD7762] (partner 0.2 µM)
How it was run: (§1)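 Each reported value is a median over duplicate plates. It expresses relative viability: treated-well nuclei count divided by vehicle-well nuclei count. Lung cancer cell lines in 1536-well plates were dosed by pin tool a day after seeding, alone with one drug or with a fixed anchor-drug dose plus five library-drug doses (not always all listed) in √10 steps, and nuclei were counted after 5 days.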

KIN001-266 + Decitabine = compound: CCN1CCC(CC1)N2C=C(N=N2)CNC3=CC4=C(C(=CN=C4C(=C3)Cl)C#N)NC5=CC(=C(C=C5)F)Cl [KIN001-266] + Nc1ncn([C@H]2C[C@H](O)[C@@H](CO)O2)c(=O)n1 [Decitabine] (partner 2 µM)
How it was run: as §1

KIN001-266 + Tozasertib = compound: CCN1CCC(CC1)N2C=C(N=N2)CNC3=CC4=C(C(=CN=C4C(=C3)Cl)C#N)NC5=CC(=C(C=C5)F)Cl [KIN001-266] + Cc1cc(Nc2cc(N3CCN(C)CC3)nc(Sc3ccc(NC(=O)C4CC4)cc3)n2)n[nH]1 [Tozasertib] (partner 0.1 µM)
How it was run: as §1

KIN001-266 + Bortezomib = compound: CCN1CCC(CC1)N2C=C(N=N2)CNC3=CC4=C(C(=CN=C4C(=C3)Cl)C#N)NC5=CC(=C(C=C5)F)Cl [KIN001-266] + CC(C)C[C@H](NC(=O)[C@H](Cc1ccccc1)NC(=O)c1cnccn1)B(O)O [Bortezomib] (partner 0.002 µM)
How it was run: as §1

With NCI-H1793 the relative viability (KIN001-266 + AZD7762; first compound 0.08 µM) was 0.482, the relative viability (KIN001-266 + AZD7762; first compound 0.253 µM) was 0.541 and the relative viability (KIN001-266 + AZD7762; first compound 2.53 µM) was 0.276. The relative viability (KIN001-266 + AZD7762; first compound 8 µM) was 0.376, the relative viability (KIN001-266 + Decitabine; first compound 0.08 µM) was 0.574 and the relative viability (KIN001-266 + Decitabine; first compound 0.253 µM) was 0.463. It also gave a relative viability (KIN001-266 + Decitabine; first compound 2.53 µM) of 0.476, a relative viability (KIN001-266 + Decitabine; first compound 8 µM) of 0.364 and a relative viability (KIN001-266 + Tozasertib; first compound 0.08 µM) of 0.325. The relative viability (KIN001-266 + Tozasertib; first compound 0.253 µM) was 0.416, the relative viability (KIN001-266 + Tozasertib; first compound 0.8 µM) was 0.303 and the relative viability (KIN001-266 + Tozasertib; first compound 2.53 µM) was 0.323. For the same cell line, the relative viability (KIN001-266 + Tozasertib; first compound 8 µM) was 0.272.
Work on NCI-H1563 yielded a relative viability (KIN001-266 + Bortezomib; first compound 0.08 µM) of 0.951, a relative viability (KIN001-266 + Bortezomib; first compound 0.253 µM) of 0.982 and a relative viability (KIN001-266 + Bortezomib; first compound 0.8 µM) of 0.846. For the same cell line, the relative viability (KIN001-266 + Bortezomib; first compound 2.53 µM) was 0.855 and the relative viability (KIN001-266 + Bortezomib; first compound 8 µM) was 0.809.
In the case of NCI-H1395, the relative viability (KIN001-266 + AZD7762; first compound 0.08 µM) is reported as 0.404, the relative viability (KIN001-266 + AZD7762; first compound 0.253 µM) is reported as 0.453 and the relative viability (KIN001-266 + AZD7762; first compound 0.8 µM) is reported as 0.399. The relative viability (KIN001-266 + AZD7762; first compound 2.53 µM) was 0.375, the relative viability (KIN001-266 + AZD7762; first compound 8 µM) was 0.391 and the relative viability (KIN001-266 + Decitabine; first compound 0.08 µM) was 0.731. It also gave a relative viability (KIN001-266 + Decitabine; first compound 0.253 µM) of 0.687, a relative viability (KIN001-266 + Decitabine; first compound 0.8 µM) of 0.75 and a relative viability (KIN001-266 + Decitabine; first compound 2.53 µM) of 0.687. It also gave a relative viability (KIN001-266 + Decitabine; first compound 8 µM) of 0.758, a relative viability (KIN001-266 + Tozasertib; first compound 0.08 µM) of 0.808 and a relative viability (KIN001-266 + Tozasertib; first compound 0.253 µM) of 0.779. The relative viability (KIN001-266 + Tozasertib; first compound 0.8 µM) was 0.786, the relative viability (KIN001-266 + Tozasertib; first compound 2.53 µM) was 0.724 and the relative viability (KIN001-266 + Tozasertib; first compound 8 µM) was 0.677.
Cell Line NCI-H1299 has a relative viability (KIN001-266 + Bortezomib; first compound 0.08 µM) of 1.02, a relative viability (KIN001-266 + Bortezomib; first compound 0.253 µM) of 1.01 and a relative viability (KIN001-266 + Bortezomib; first compound 0.8 µM) of 0.984. For the same cell line, the relative viability (KIN001-266 + Bortezomib; first compound 2.53 µM) was 0.962 and the relative viability (KIN001-266 + Bortezomib; first compound 8 µM) was 0.882.
For NCI-H2228, the relative viability (KIN001-266 + Tozasertib; first compound 0.08 µM) was 0.312, the relative viability (KIN001-266 + Tozasertib; first compound 0.253 µM) was 0.255 and the relative viability (KIN001-266 + Tozasertib; first compound 0.8 µM) was 0.266. For the same cell line, the relative viability (KIN001-266 + Tozasertib; first compound 2.53 µM) was 0.192, the relative viability (KIN001-266 + Tozasertib; first compound 8 µM) was 0.264 and the relative viability (KIN001-266 + Bortezomib; first compound 0.08 µM) was 1.03. The relative viability (KIN001-266 + Bortezomib; first compound 0.253 µM) was 0.935, the relative viability (KIN001-266 + Bortezomib; first compound 0.8 µM) was 1.09 and the relative viability (KIN001-266 + Bortezomib; first compound 2.53 µM) was 1.33. The relative viability (KIN001-266 + Bortezomib; first compound 8 µM) was 0.796.
NCI-H2170 gave a relative viability (KIN001-266 + AZD7762; first compound 0.08 µM) of 0.924, a relative viability (KIN001-266 + AZD7762; first compound 0.253 µM) of 0.958 and a relative viability (KIN001-266 + AZD7762; first compound 0.8 µM) of 0.924. For the same cell line, the relative viability (KIN001-266 + AZD7762; first compound 2.53 µM) was 0.854, the relative viability (KIN001-266 + AZD7762; first compound 8 µM) was 0.774 and the relative viability (KIN001-266 + Decitabine; first compound 0.08 µM) was 0.47. It also gave a relative viability (KIN001-266 + Decitabine; first compound 0.253 µM) of 0.437, a relative viability (KIN001-266 + Decitabine; first compound 0.8 µM) of 0.457 and a relative viability (KIN001-266 + Decitabine; first compound 2.53 µM) of 0.436. The relative viability (KIN001-266 + Decitabine; first compound 8 µM) was 0.414, the relative viability (KIN001-266 + Tozasertib; first compound 0.08 µM) was 0.802 and the relative viability (KIN001-266 + Tozasertib; first compound 0.253 µM) was 0.715. For the same cell line, the relative viability (KIN001-266 + Tozasertib; first compound 0.8 µM) was 0.623, the relative viability (KIN001-266 + Tozasertib; first compound 2.53 µM) was 0.785 and the relative viability (KIN001-266 + Tozasertib; first compound 8 µM) was 0.709.
In the case of NCI-H522, the relative viability (KIN001-266 + AZD7762; first compound 0.08 µM) is reported as 0.951, the relative viability (KIN001-266 + AZD7762; first compound 0.253 µM) is reported as 0.85 and the relative viability (KIN001-266 + AZD7762; first compound 0.8 µM) is reported as 0.786. It also gave a relative viability (KIN001-266 + AZD7762; first compound 2.53 µM) of 0.822, a relative viability (KIN001-266 + AZD7762; first compound 8 µM) of 0.79 and a relative viability (KIN001-266 + Decitabine; first compound 0.08 µM) of 0.651. It also gave a relative viability (KIN001-266 + Decitabine; first compound 0.253 µM) of 0.609, a relative viability (KIN001-266 + Decitabine; first compound 0.8 µM) of 0.777 and a relative viability (KIN001-266 + Decitabine; first compound 2.53 µM) of 0.702. For the same cell line, the relative viability (KIN001-266 + Decitabine; first compound 8 µM) was 0.678, the relative viability (KIN001-266 + Tozasertib; first compound 0.08 µM) was 0.562 and the relative viability (KIN001-266 + Tozasertib; first compound 0.253 µM) was 0.498. The relative viability (KIN001-266 + Tozasertib; first compound 0.8 µM) was 0.566, the relative viability (KIN001-266 + Tozasertib; first compound 2.53 µM) was 0.502 and the relative viability (KIN001-266 + Tozasertib; first compound 8 µM) was 0.594.
